Assay results published in PubChem BioAssay AID1963980 (Molecular Pharmacology Branch, DTP, NCI, 2024).

System: 475296-252-R-J1-PDC spheroid viability
Assay: Anticancer human tumor 475296-252-R-J1-PDC patient-derived rectal carcinoma cell line growth inhibition [PI3K]
Conditions: spheroids with HUVEC and MSC; for IC50: curve of first compound; for viability, T/C: stronger effect = lower value
Method in brief: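 Combination activity was assessed by viability in multicellular tumor spheroids carrying HUVEC and MSC components. Agents were tested with PI3K inhibitors from a Cmax-based top dose (or 10 microM) downward in half-log increments.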

[1] = second compound 0.0316 µM, first compound 0.0316 µM
[2] = second compound 0.0316 µM, first compound 0.1 µM
[3] = second compound 0.0316 µM, first compound 0.316 µM
[4] = second compound 0.0316 µM, first compound 1 µM
[5] = second compound 0.1 µM, first compound 0.0316 µM
[6] = second compound 0.1 µM, first compound 0.1 µM
[7] = second compound 0.1 µM, first compound 0.316 µM
[8] = second compound 0.1 µM, first compound 1 µM
[9] = second compound 0.316 µM, first compound 0.0316 µM
[10] = second compound 0.316 µM, first compound 0.1 µM
[11] = second compound 0.316 µM, first compound 0.316 µM
[12] = second compound 0.316 µM, first compound 1 µM
[13] = second compound 1 µM, first compound 0.0316 µM
[14] = second compound 1 µM, first compound 0.1 µM
[15] = second compound 1 µM, first compound 0.316 µM
[16] = second compound 1 µM, first compound 1 µM
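Note: spheroids exposed to agents for seven days before readout.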

In the case of `CCN1CCN(Cc2ccc(Nc3ncc(F)c(-c4cc(F)c5nc(C)n(C(C)C)c5c4)n3)nc2)CC1` + COc1c(OCCCN2CCOCC2)ccc2c3n(c(=NC(=O)c4cnc(N)nc4)nc12)CCN3, the IC50 (second compound 0.00316 µM) is reported as greater than 1000 nM, the IC50 (second compound 0.01 µM) is reported as greater than 1000 nM and the IC50 (second compound 0.0316 µM) is reported as greater than 1000 nM. The IC50 (second compound 0.1 µM) was greater than 1000 nM, the IC50 (second compound 0.316 µM) was greater than 1000 nM and the IC50 (second compound 1 µM) was greater than 1000 nM. It also gave a viability, T/C (second compound 0.00316 µM, first compound 0.00316 µM) of 99.3%, a viability, T/C (second compound 0.00316 µM, first compound 0.01 µM) of 102% and a viability, T/C (second compound 0.00316 µM, first compound 0.0316 µM) of 97.5%. The viability, T/C (second compound 0.00316 µM, first compound 0.1 µM) was 104%, the viability, T/C (second compound 0.00316 µM, first compound 0.316 µM) was 100% and the viability, T/C (second compound 0.00316 µM, first compound 1 µM) was 90.6%. For the same compound, the viability, T/C (second compound 0.01 µM, first compound 0.00316 µM) was 95.6%, the viability, T/C (second compound 0.01 µM, first compound 0.01 µM) was 95% and the viability, T/C (second compound 0.01 µM, first compound 0.0316 µM) was 93.1%. The viability, T/C (second compound 0.01 µM, first compound 0.1 µM) was 95.2%, the viability, T/C (second compound 0.01 µM, first compound 0.316 µM) was 104% and the viability, T/C (second compound 0.01 µM, first compound 1 µM) was 76.4%. It also gave a viability, T/C (second compound 0.0316 µM, first compound 0.00316 µM) of 83.8%, a viability, T/C (second compound 0.0316 µM, first compound 0.01 µM) of 92.5% and a viability, T/C [1] of 99.2%. The viability, T/C [2] was 95.1%, the viability, T/C [3] was 86.9% and the viability, T/C [4] was 64.4%. The viability, T/C (second compound 0.1 µM, first compound 0.00316 µM) was 86.3%, the viability, T/C (second compound 0.1 µM, first compound 0.01 µM) was 94.4% and the viability, T/C [5] was 84.8%. The viability, T/C [6] was 87.2%, the viability, T/C [7] was 85.9% and the viability, T/C [8] was 63.8%. It also gave a viability, T/C (second compound 0.316 µM, first compound 0.00316 µM) of 74.3%, a viability, T/C (second compound 0.316 µM, first compound 0.01 µM) of 78.4% and a viability, T/C [9] of 72.5%. For the same compound, the viability, T/C [10] was 65.3%, the viability, T/C [11] was 63% and the viability, T/C [12] was 50%. It also gave a viability, T/C (second compound 1 µM, first compound 0.00316 µM) of 62.8%, a viability, T/C (second compound 1 µM, first compound 0.01 µM) of 58.2% and a viability, T/C [13] of 63.6%. It also gave a viability, T/C [14] of 55.8%, a viability, T/C [15] of 56% and a viability, T/C [16] of 55.2%.
In the case of `C#Cc1c(F)ccc2cc(O)cc(-c3ncc4c(N5CC6CCC(C5)N6)nc(OCC56CCCN5CC(F)C6)nc4c3F)c12` (centres undefined) + Cc1nc(NC(=O)N2CCCC2C(N)=O)sc1-c1ccnc(C(C)(C)C(F)(F)F)c1, the IC50 (second compound 0.0316 µM) is reported as greater than 10000 nM, the IC50 (second compound 0.1 µM) is reported as greater than 10000 nM and the IC50 (second compound 0.316 µM) is reported as 8410 nM. The IC50 (second compound 1 µM) was 4420 nM, the IC50 (second compound 3.16 µM) was 689 nM and the IC50 (second compound 10 µM) was 267 nM. It also gave a viability, T/C [1] of 88.4%, a viability, T/C [2] of 84.1% and a viability, T/C [3] of 88.5%. The viability, T/C [4] was 74.2%, the viability, T/C (second compound 0.0316 µM, first compound 3.16 µM) was 67.9% and the viability, T/C (second compound 0.0316 µM, first compound 10 µM) was 66%. The viability, T/C [5] was 87.1%, the viability, T/C [6] was 78.9% and the viability, T/C [7] was 88.1%. For the same compound, the viability, T/C [8] was 64.6%, the viability, T/C (second compound 0.1 µM, first compound 3.16 µM) was 66.9% and the viability, T/C (second compound 0.1 µM, first compound 10 µM) was 59%. For the same compound, the viability, T/C [9] was 80.2%, the viability, T/C [10] was 84.7% and the viability, T/C [11] was 73.6%. For the same compound, the viability, T/C [12] was 71.7%, the viability, T/C (second compound 0.316 µM, first compound 3.16 µM) was 61.1% and the viability, T/C (second compound 0.316 µM, first compound 10 µM) was 48%. For the same compound, the viability, T/C [13] was 78.4%, the viability, T/C [14] was 82.8% and the viability, T/C [15] was 72%. It also gave a viability, T/C [16] of 65.5%, a viability, T/C (second compound 1 µM, first compound 3.16 µM) of 60.3% and a viability, T/C (second compound 1 µM, first compound 10 µM) of 32.7%. The viability, T/C (second compound 3.16 µM, first compound 0.0316 µM) was 89.1%, the viability, T/C (second compound 3.16 µM, first compound 0.1 µM) was 75.3% and the viability, T/C (second compound 3.16 µM, first compound 0.316 µM) was 65.1%. It also gave a viability, T/C (second compound 3.16 µM, first compound 1 µM) of 44.8%, a viability, T/C (second compound 3.16 µM, first compound 3.16 µM) of 21.7% and a viability, T/C (second compound 3.16 µM, first compound 10 µM) of 10.4%. It also gave a viability, T/C (second compound 10 µM, first compound 0.0316 µM) of 73.4%, a viability, T/C (second compound 10 µM, first compound 0.1 µM) of 70.2% and a viability, T/C (second compound 10 µM, first compound 0.316 µM) of 46.6%. For the same compound, the viability, T/C (second compound 10 µM, first compound 1 µM) was 9.2%, the viability, T/C (second compound 10 µM, first compound 3.16 µM) was 5.28% and the viability, T/C (second compound 10 µM, first compound 10 µM) was 3.54%.
